Where a name gives a salt, the structure may show the parent alone. Marks after values point to notes of the source that are not given here.
Columns and labels:
Type in all cases: physicochemical
[1] = Solid stability evaluation (I/II), XRPD and HPLC
In short: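 Tris salt Form A and amorphous free form of Compound I, and Compound II citrate salt Form A, Tris salt Form B and free form, stored as solids at 60° C. for 1 day and at 25° C./60% RH or 40° C./75% RH for 1 week. Physical form checked by XRPD and chemical stability by HPLC.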

[2] = Solution stability evaluation in SGF (pH 1.8) and pH 8.0 buffer at RT; conditions: RT
Description: Weigh 100 mg of sodium chloride and 50 mg of Triton X-100 into a 50-mL volumetric flask. Add appropriate volume of purified water and sonicate until all solids are completely dissolved. Add about 68 μL of 12 M HCl and sufficient purified water closely to the target volume and adjust to pH 1.8. Dilute to volume with purified water, mix well and check the pH with a pH meter.
Add sufficient purified water closely to the target volume and adjust to pH 8.0. Dilute to volume with purified water, mix well and check the pH with a pH meter. […]
Solution stability was evaluated for 1:1 Compound II Citrate Salt (Form A) and 1:1 Compound II Tris Salt (Form B) in SGF (pH 1.8) and pH 8.0 buffer at RT. Clear solutions were prepared at two concentrations (0.01 mg/mL, 0.05 mg/mL) and then placed at RT for 6 hours, 1/5 days or 6 hours, 1/3/7 days. […] The HPLC purity and pH value were tested and the results were summarized from Table 7-3-1 to Table 7-3-4.

Hygroscopicity, DVS test = conditions: 25° C.
Description: DVS was measured via a SMS (Surface Measurement Systems) DVS Intrinsic. The relative humidity at 25° C. were calibrated against deliquescence point of LiCl, Mg(NO3)2 and KCl.
To investigate the solid form stability as a function of humidity, DVS isotherm plot of 1:1 Compound I Tris Salt (Form A) was collected between 0% RH and 95% RH at 25° C. […] Considering the 1:1 Compound I Tris Salt (Form A) is a hydrate and may dehydrate under low humidity, DVS was also tested at 20 and 30° C. to further confirm the suitable storage condition and avoid dehydration. […] Combing the VH-XRPD and DVS results: the condition of 20-30° C. and relative humidity ≥40% RH is suitable for the storage of 1:1 Compound I Tris Salt (Form A).
To investigate the solid form stability as a function of humidity, DVS isotherm plots of 1:1 Compound II Citrate Salt (Form A) and 1:1 Compound II Tris Salt (Form B) were collected at 25° C. between 0% RH and 95% RH. […] The water uptake increased by 0.97% from 10% to 80% RH and a platform was observed.

[3] = 6 hours, 0.01 mg/mL, pH 1.8 (SGF)
[4] = 6 hours, 0.01 mg/mL, pH 8.0 (50 mM phosphate)
[5] = 6 hours, 0.05 mg/mL, pH 1.8 (SGF)
[6] = 6 hours, 0.05 mg/mL, pH 8.0 (50 mM phosphate)
[7] = 1 day, 0.01 mg/mL, pH 1.8 (SGF)
[8] = 1 day, 0.01 mg/mL, pH 8.0 (50 mM phosphate)
[9] = 1 day, 0.05 mg/mL, pH 1.8 (SGF)
[10] = 1 day, 0.05 mg/mL, pH 8.0 (50 mM phosphate)
[11] = 3 days, 0.01 mg/mL, pH 1.8 (SGF)
[12] = 3 days, 0.01 mg/mL, pH 8.0 (50 mM phosphate)
[13] = 3 days, 0.05 mg/mL, pH 1.8 (SGF)
[14] = 3 days, 0.05 mg/mL, pH 8.0 (50 mM phosphate)
[15] = 7 days, 0.01 mg/mL, pH 1.8 (SGF)
[16] = 7 days, 0.01 mg/mL, pH 8.0 (50 mM phosphate)
[17] = 7 days, 0.05 mg/mL, pH 1.8 (SGF)
[18] = 7 days, 0.05 mg/mL, pH 8.0 (50 mM phosphate)
[19] = Initial, 0.01 mg/mL, pH 1.8 (SGF)
[20] = Initial, 0.01 mg/mL, pH 8.0 (50 mM phosphate)
[21] = Initial, 0.05 mg/mL, pH 1.8 (SGF)
[22] = Initial, 0.05 mg/mL, pH 8.0 (50 mM phosphate)

N#Cc1ccc(COc2cccc(C3=CCN(Cc4nc5ccc(C(=O)O)cc5n4C[C@@H]4CCO4)CC3)n2)c(F)c1 [Tris salt Form B, (S)-2-((6-((4-cyano-2-fluorobenzyl)oxy)-3′,6′-dihydro-[2,4′-bipyridin]-1′(2′H)-yl)methyl)-1-(oxetan-2-ylmethyl)-1H-benzo[d]imidazole-6-carboxylic acid]
Form change ([1]; 25° C./60% RH (open), 1 week): No | Observation ([1]; 25° C./60% RH (open), 1 week): Yellow | Purity (area %) ([1]; 25° C./60% RH (open), 1 week): 93.86 area % | Form change ([1]; 40° C./75% RH (open), 1 week): No | Observation ([1]; 40° C./75% RH (open), 1 week): Yellow | Purity (area %) ([1]; 40° C./75% RH (open), 1 week): 94.13 area % | Chemical stability compared with free form ([1]; 60° C. 1 day, 25° C./60% RH or 40° C./75% RH 1 week): better chemical stability | Form change ([1]; 60° C. (capped), 1 day): No | Observation ([1]; 60° C. (capped), 1 day): Yellow | Purity (area %) ([1]; 60° C. (capped), 1 day): 92.98 area % | Form change ([1]; Initial): No | Observation ([1]; Initial): Yellowish | Purity (area %) ([1]; Initial): 94.56 area % | Purity (% area) [2, 3]: 94.92 % area | Purity vs. Initial (%) [2, 3]: 99.7% | pH [2, 3]: 1.8 | Purity (% area) [2, 4]: 98.97 % area | Purity vs. Initial (%) [2, 4]: 99.9% | pH [2, 4]: 8.0 | Purity (% area) [2, 5]: 97.53 % area | Purity vs. Initial (%) [2, 5]: 99.3% | pH [2, 5]: 1.8 | Purity (% area) [2, 6]: 99.28 % area | Purity vs. Initial (%) [2, 6]: 100.0% | pH [2, 6]: 8.0 | Purity (% area) [2, 7]: 94.11 % area | Purity vs. Initial (%) [2, 7]: 98.8% | pH [2, 7]: 1.8 | Purity (% area) [2, 8]: 98.38 % area | Purity vs. Initial (%) [2, 8]: 99.3% | pH [2, 8]: 8.0 | Purity (% area) [2, 9]: 96.40 % area | Purity vs. Initial (%) [2, 9]: 98.1% | pH [2, 9]: 1.8 | Purity (% area) [2, 10]: 98.86 % area | Purity vs. Initial (%) [2, 10]: 99.6% | pH [2, 10]: 8.0 | Purity (% area) [2, 11]: 91.81 % area | Purity vs. Initial (%) [2, 11]: 96.4% | pH [2, 11]: 1.8 | Purity (% area) [2, 12]: 98.26 % area | Purity vs. Initial (%) [2, 12]: 99.2% | pH [2, 12]: 8.0 | Purity (% area) [2, 13]: 93.38 % area | Purity vs. Initial (%) [2, 13]: 95.0% | pH [2, 13]: 1.8 | Purity (% area) [2, 14]: 98.98 % area | Purity vs. Initial (%) [2, 14]: 99.7% | pH [2, 14]: 8.0 | Purity (% area) [2, 15]: 87.14 % area | Purity vs. Initial (%) [2, 15]: 91.5% | pH [2, 15]: 1.8 | Purity (% area) [2, 16]: 97.31 % area | Purity vs. Initial (%) [2, 16]: 98.3% | pH [2, 16]: 8.0 | Purity (% area) [2, 17]: 87.15* % area | Purity vs. Initial (%) [2, 17]: 88.7% | pH [2, 17]: 1.8 | Purity (% area) [2, 18]: 98.75 % area | Purity vs. Initial (%) [2, 18]: 99.5% | pH [2, 18]: 8.0 | Purity (% area) [2, 19]: 95.25 % area | pH [2, 19]: 1.8 | Purity (% area) [2, 20]: 99.04 % area | pH [2, 20]: 8.0 | Purity (% area) [2, 21]: 98.26 % area | pH [2, 21]: 1.8 | Purity (% area) [2, 22]: 99.27 % area | pH [2, 22]: 8.0 | Form change after DVS test (Hygroscopicity, DVS test): No | Hygroscopicity (Hygroscopicity, DVS test; according to Chinese Pharmacopeia 2015): Slightly hygroscopic | Water uptake increase between 0% and 10% RH (Hygroscopicity, DVS test; cycle 2 sorption curve): 2.47% | Water uptake from 10% RH to 80% RH (Hygroscopicity, DVS test): 0.97%* | Water uptake from 10% RH to 80% RH (Hygroscopicity, DVS test; listed as 1:1 Compound II Tris Salt (Form B)): 0.97%

— patent publication US20230203023A1, “SALT AND CRYSTAL FORMS OF GLP-1R AGONISTS AND USES THEREOF” (QILU REGOR THERAPEUTICS INC., priority 2020, published 2023)
